Data reported in paper PMC12376758, “Restoration of CB1 receptor function in hippocampal GABAergic neurons rescues memory deficits in Huntington’s disease models” (Translational Neurodegeneration, 2025).

Tests used:
[1] = tested on: mutant huntingtin (mHtt) aggregates; assay: EM48 immunostaining of mutant huntingtin nuclear aggregates in hippocampus; format: in vivo, mouse; details: R6/1 mice, hippocampus (CA1), WIN 1 mg/kg i.p. vs vehicle
Experimental: Hippocampal coronal sections from vehicle- and WIN-treated R6/1 mice were first incubated for 30 min in ammonium chloride (NH4Cl) to quench endogenous fluorescence. They were then blocked for 1 h in PBS containing 0.3% Triton X-100 (Merck), 3% normal goat serum (Abcam), and 1% bovine serum albumin (BSA; Merck). After blocking, the sections were incubated overnight at 4 °C with anti-EM48 (1:1000, Merck). The EM48 antibody specifically recognizes huntingtin-containing nuclear aggregates by targeting the first 256 amino acids of human huntingtin protein [48]. […]
Imaging was performed using a Leica Confocal SP5 with a 63 × oil-immersion objective, ensuring consistent imaging conditions (pinhole size:1 AU, resolution: 1024 × 1024 pixels, and intensity). Automated quantification of nuclear huntingtin aggregates, including the number, intensity, and pixel area of EM48-stained nuclei in the hippocampus, was carried out using the ImageJ particle analysis plugin.
The density of aggregates was calculated as the ratio of the number of positive particles (NII) to the pixel area (mm^2). EM48 staining index (SI) was determined as the product of the mean number of stained nuclei and the average nuclear stain intensity, as described previously.

[2] = tested on: PSD95; assay: Western blot of PSD95 in hippocampal lysates; format: in vivo, mouse; details: R6/1 mice, WIN 1 mg/kg i.p. 10 days
[3] = tested on: CB2R; assay: Western blot of CB2R in total hippocampal lysates after sub-chronic WIN; format: in vivo, mouse; details: WIN 1 mg/kg i.p. 10 days
[4] = tested on: models of vascular dementia and ischemic injury; set-up: method as in PMID 36979335, PMID 29945070; details: cited from earlier work
[5] = tested on: WT mice; assay: Y-maze in WT mice (WIN dose selection); format: in vivo, mouse; details: 13-week-old WT mice, WIN 1 and 4 mg/kg i.p., 10 days
Experimental: Spontaneous working memory was assessed using the Y-maze test. Mice were habituated to the testing room 1 h prior to the session. During the 8-min trial, each mouse was placed in the center of the maze and allowed to move freely. An arm entry was recorded when all four paws of the mouse were within the arm. The apparatus was cleaned thoroughly after each trial. Alternation was defined as successive entries into all three arms in an overlapping triplet sequence. Spontaneous alternation was calculated as the ratio of actual alternations to the total possible alternations, and the result was expressed as a percentage.
(§1) Given the observed reduction of CB1R in the R6/1 hippocampus, we hypothesized that pharmacological activation of the remaining CB1Rs could mitigate HD-related memory decline.

[6] = tested on: CB1R; format: in vivo, mouse; details: hippocampus
Experimental: WT and R6/1 mice were deeply anesthetized with ketamine and xylazine (i.p injection; 100 mg/kg and 10 mg/kg, respectively) and immediately perfused transcardially with saline, followed by 4% paraformaldehyde in phosphate buffer. Brains were then removed, post-fixed overnight in the same solution, cryoprotected by immersion in 30% sucrose, and frozen in dry ice-cooled methylbutane. Serial coronal cryostat sections (30 μm) were collected through the entire brain in PBS as free-floating sections and processed as described previously [47].
Sections were rinsed three times in PBS, permeabilized, and blocked in PBS containing 0.3% Triton X-100 and 3% normal goat serum (Pierce Biotechnology, Rockford, IL) for 15 min at room temperature. […]
Stained coronal sections were examined using a Carl Zeiss LSM880 confocal microscope, a 10 × , 40 × and 63 × oil-immersion objective, 4 × digital zoom, and a standard Airy disc pinhole. For each mouse, at least three 30-µm thick coronal sections containing the hippocampal region were analyzed. […] The CB1R-, calbindin- and GAD67-integrated density was quantified with NIH ImageJ2 version 2.9.0/1.53t (Wayne Rasband, NIH). For double-positive quantification, Pearson’s correlation coefficient was calculated using ImageJ2. […]

[7] = tested on: WT mice; assay: Novel object location task (NOLT) in WT mice (WIN dose selection); format: in vivo, mouse; details: 13-week-old WT mice, WIN 1 and 4 mg/kg i.p., 10 days
Experimental: NOLT was conducted in a quadrangular open field (40 cm × 40 cm, 40 cm high) with a light intensity of 40 lx at controlled room conditions (19–22 °C, 40%–60% humidity). Mice were first habituated to the arena, which was devoid of objects but included spatial cues attached to the walls, for 15 min per session over two consecutive days. During this phase, spontaneous locomotor activity, as well as the time and the distance spent in the periphery versus the center, were measured. On the third day (NOLT training), two identical objects (A and A′) were placed in adjacent corners of the arena, and mice were allowed to explore for 10 min. Twenty-four hours later (NOLT testing), the object A was placed in the same location, while a new object (A″) was placed in the diagonally opposite corner. During the testing phase, mice were allowed to explore for 5 min. The arena was thoroughly cleaned between trials to eliminate residual odors. Animal movements were tracked and recorded using the SMART® Junior software (Panlab, Spain). Exploration times were recorded to calculate the discrimination index as follows: discriminationindex=Timeexploringnovelobject-Timeexploringfamiliarobject/Timeexploringbothobjects×100\%
as §1

For Cc1c(C(=O)c2cccc3ccccc23)c2cccc3c2n1[C@H](CN1CCOCC1)CO3 [WIN, WIN 55212–2], the “density of intranuclear mHtt inclusion” value [1] was “significant reduction”, the PSD95 protein level [2] was “restored” and the “CB2R levels, Western blot” value ([3]; Hdh^Q7/Q111 KI mice 6 months) was “did not significantly affect”. For the same molecule, the “CB2R levels, Western blot” value ([3]; R6/1 mice 13 weeks) was “did not significantly affect”, the neuroprotection [4] was “neuroprotective effects” and the “working memory (Y-maze)” value [5] was “no differences”. The “CB1R staining, immunohistochemistry” value ([6]; Hdh^Q7/Q111 KI mice, sub-chronic WIN) was “restored to near WT levels”, the “CB1R levels, immunohistochemistry” value ([6]; R6/1 mice, WIN 1 mg/kg i.p. 10 days) was “comparable to those of WT controls” and the “spatial memory (NOLT)” value [7] was “no differences”.
